Source: paper PMC11434100, “Biomimetic Metal–Organic Framework Gated Nanoplatform for Sonodynamic Therapy against Extensively Drug Resistant Bacterial Lung Infection” (Advanced Science, 2024)
Converted amounts (≈) assume the structure as drawn.

Tests used:
XDR-AB = assay: Drug sensitivity test of clinical strains (Table S2); assay type: cell-based, Acinetobacter baumannii; conditions: value in brackets; for MIC: Acinetobacter baumannii
XDR-PA = assay: as above; assay type: cell-based, Pseudomonas aeruginosa; conditions: value in brackets; for MIC: Pseudomonas aeruginosa
XDR-Kp = assay: as above; assay type: cell-based, Klebsiella pneumoniae; conditions: value in brackets; for MIC: Klebsiella pneumoniae
XDR-E. coli = assay: as above; assay type: cell-based, Escherichia coli; conditions: value in brackets; for MIC: Escherichia coli
[1] = tested on: XDR-AB (clinically isolated XDR Acinetobacter baumannii); assay: Minimum inhibitory concentration, broth dilution (Table S1); assay type: cell-based; conditions: CLSI guidelines, 10^5 CFU mL−1, 24 h, 37 °C, visible growth
Experimental: (§1) Four clinically isolated XDR strains were cultured in LB media at 37 °C with rotation (180 rpm) overnight. […] The bacterial concentration was adjusted to 10^5 CFU mL^−1.

[2] = tested on: XDR-E. coli (clinically isolated XDR Escherichia coli); assay: as above; assay type: cell-based; conditions: CLSI guidelines, 10^5 CFU mL−1, 24 h, 37 °C, visible growth
Experimental: as §1

[3] = tested on: XDR-Kp (clinically isolated XDR Klebsiella pneumoniae); assay: as above; assay type: cell-based; conditions: CLSI guidelines, 10^5 CFU mL−1, 24 h, 37 °C, visible growth
Experimental: as §1

[4] = tested on: XDR-PA (clinically isolated XDR Pseudomonas aeruginosa); assay: as above; assay type: cell-based; conditions: CLSI guidelines, 10^5 CFU mL−1, 24 h, 37 °C, visible growth
Experimental: as §1

Row | Compound | MIC (XDR-AB) [µg/mL] | MIC (XDR-PA) [µg/mL] | MIC (XDR-Kp) [µg/mL] | MIC (XDR-E. coli) [µg/mL] | other results
1 | NCC[C@H](O)C(=O)N[C@@H]1C[C@H](N)[C@@H](O[C@H]2O[C@H](CN)[C@@H](O)[C@H](O)[C@H]2O)[C@H](O)[C@H]1O[C@H]1O[C@H](CO)[C@@H](O)[C@H](N)[C@H]1O [Amikacin] | ≥ 64 | ≥ 64 | ≥ 64 | ≥ 64 | 
2 | CC1(C)S[C@@H]2[C@H](NC(=O)[C@H](N)c3ccccc3)C(=O)N2[C@H]1C(=O)O [Ampicillin] | ≥ 32 | ≥ 32 | ≥ 32 | ≥ 32 | 
3 | Cc1nnc(SCC2=C(C(=O)O)N3C(=O)[C@@H](NC(=O)Cn4cnnn4)[C@H]3SC2)s1 [Cefazolin] | ≥ 64 | ≥ 64 | ≥ 64 | ≥ 64 | 
4 | CO/N=C(\C(=O)N[C@@H]1C(=O)N2C(C(=O)[O-])=C(C[N+]3(C)CCCC3)CS[C@H]12)c1csc(N)n1 [Cefepime] | ≥ 64 | ≥ 64 | ≥ 64 | ≥ 64 | 
5 | CO[C@@]1(NC(=O)C2SC(=C(C(N)=O)C(=O)O)S2)C(=O)N2C(C(=O)O)=C(CSc3nnnn3C)CS[C@@H]21 (some centres unmarked) [Cefotetan] | ≥ 64 | ≥ 64 | ≥ 64 | ≥ 64 | 
6 | CC(C)(O/N=C(\C(=O)N[C@@H]1C(=O)N2C(C(=O)[O-])=C(C[n+]3ccccc3)CS[C@H]12)c1csc(N)n1)C(=O)O [Ceftazidime] | ≥ 64 | ≥ 64 | ≥ 64 | ≥ 64 | 
7 | C[C@@H](O)[C@H]1C(=O)N2C(C(=O)O)=C(SCCN=CN)C[C@H]12 [Imipenem] | ≥ 16 | ≥ 16 | ≥ 16 | ≥ 16 | 
8 | C[C@H]1COc2c(N3CCN(C)CC3)c(F)cc3c(=O)c(C(=O)O)cn1c23 [Levofloxacin] | ≥ 8 | ≥ 8 | ≥ 8 | 11 (≈ 30.4 µM) | 
9 | CN(C)c1cc(NC(=O)CNC(C)(C)C)c(O)c2c1C[C@H]1C[C@H]3[C@H](N(C)C)C(O)=C(C(N)=O)C(=O)[C@@]3(O)C(O)=C1C2=O [Tigecycline] | 0.38 (≈ 0.649 µM) |  |  |  | 
10 | NC[C@H]1O[C@H](O[C@H]2[C@H](O)[C@@H](O[C@H]3O[C@H](CO)[C@@H](O)[C@H](N)[C@H]3O)[C@H](N)C[C@@H]2N)[C@H](N)C[C@@H]1O [Tobramycin] | ≥ 16 | ≥ 16 | ≥ 16 | ≥ 16 | 
11 | Gentamycin |  |  |  |  | MIC (drug sensitivity test) (XDR-AB): >= 16 µg mL-1; MIC (drug sensitivity test) (XDR-PA): >= 16 µg mL-1; MIC (drug sensitivity test) (XDR-Kp): >= 16 µg mL-1; MIC (drug sensitivity test) (XDR-E. coli): >= 16 µg mL-1
12 | Polymyxin B [PMB] |  |  |  |  | MIC [1]: 32 µg/mL; MIC [2]: 16 µg/mL; MIC [3]: 16 µg/mL; MIC [4]: 8 µg/mL; MIC (drug sensitivity test) (XDR-PA): 0.5 µg/mL; MIC (drug sensitivity test) (XDR-E. coli): 0.5 µg/mL
